This assay concerns BDF1 mice, P388 leukemia ip, median survival T/C. Put plainly: NCI In Vivo Anticancer Drug Screen. Data for tumor model P388 Leukemia (intraperitoneal) in B6D2F1 (BDF1) mice. Conditions: endpoint: median survival time, higher = longer survival. Summed up:
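Survival ratio, drug arm over vehicle arm, in mice with a transplanted tumour.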

Where [1] appears, read: dose: 50.0 mg/kg/injection, schedule: Q01DX009 (ip), vehicle: saline with Tween-80.
[2] abbreviates: dose: 100.0 mg/kg/injection, schedule: Q01DX009 (ip), vehicle: saline with Tween-80.
[3] abbreviates: dose: 200.0 mg/kg/injection, schedule: Q01DX009 (ip), vehicle: saline with Tween-80.

Molecules are shown by their SMILES. Values joined by “and” are separate entries in the source; they are usually repeats but may differ in a detail not shown here. Equal values may be shown once. Toxic doses and inconclusive results are not listed.

With `CC(C)c1oc(=O)cc2c1[C@@H](O)[C@H]1OC(=O)[C@@]3(C)[C@@H](O)[C@H]4O[C@H]4[C@@]2(C)[C@@H]13`, the T/C (dose: 15.0 mg/kg/injection, schedule: Q04DX003 (ip), vehicle: saline with Tween-80) was 115 % of control; the T/C (dose: 30.0 mg/kg/injection, schedule: Q01DX001 (ip), vehicle: saline with Tween-80) was 104 % of control; the T/C (dose: 30.0 mg/kg/injection, schedule: Q04DX003 (ip), vehicle: saline with Tween-80) is 97 % of control.
Turning to `CCCCSC1=CC(=O)c2ccccc2C1=O`, the T/C is, setting by setting: (dose: 3.12 mg/kg/injection, schedule: Q01DX009 (ip), vehicle: Klucel (hydroxypropylcellulose) (HPC)) 92 % of control and 104 % of control; (dose: 6.25 mg/kg/injection, schedule: Q01DX009 (ip), vehicle: Klucel (hydroxypropylcellulose) (HPC)) 100 % of control and 116 % of control; (dose: 12.5 mg/kg/injection, schedule: Q01DX009 (ip), vehicle: Klucel (hydroxypropylcellulose) (HPC)) 100 % of control and 107 % of control and 108 % of control.
For `c1ccc(P(=NC2CCCC2)(c2ccccc2)c2ccccc2)cc1`, the T/C (dose: 100.0 mg/kg/injection, schedule: Q04DX003 (ip), vehicle: saline with Tween-80) is 110 % of control; the T/C (dose: 200.0 mg/kg/injection, schedule: Q04DX003 (ip), vehicle: saline with Tween-80) was 100 % of control; the T/C (dose: 400.0 mg/kg/injection, schedule: Q04DX003 (ip), vehicle: saline with Tween-80) was 110 % of control.
Turning to `COc1ccc(CC2C(=O)NC(C)C(=O)N(C)C3Cc4ccc(cc4)Oc4cc(ccc4O)CC(C(=O)NC(C)C(=O)NC(C)C(=O)N2C)N(C)C3=O)cc1` (stereo unspecified), the T/C by setting is: (dose: 0.04 mg/kg/injection, schedule: Q01DX009 (ip), vehicle: saline) 163 % of control; (dose: 0.07 mg/kg/injection, schedule: Q01DX009 (ip), vehicle: saline) 181 % of control; (dose: 0.11 mg/kg/injection, schedule: Q01DX009 (ip), vehicle: saline with Tween-80) 196 % of control; (dose: 0.11 mg/kg/injection, schedule: Q01DX009 (ip), vehicle: saline) 163 % of control; (dose: 0.16 mg/kg/injection, schedule: Q01DX009 (ip), vehicle: saline with Tween-80) 216 % of control; (dose: 0.25 mg/kg/injection, schedule: Q01DX009 (ip), vehicle: saline with Tween-80) 160 % of control and 186 % of control. Besides, the T/C runs as follows: (dose: 0.5 mg/kg/injection, schedule: Q01DX009 (ip), vehicle: saline with Tween-80) 186 % of control; (dose: 1.0 mg/kg/injection, schedule: Q01DX009 (ip), vehicle: saline with Tween-80) 189 % of control; (dose: 2.0 mg/kg/injection, schedule: Q01DX009 (ip), vehicle: saline with Tween-80) 208 % of control; (dose: 4.32 mg/kg/injection, schedule: Q04DX003 (ip), vehicle: other) 161 % of control and 212 % of control; (dose: 7.2 mg/kg/injection, schedule: Q04DX003 (ip), vehicle: other) 163 % of control and 208 % of control; (dose: 10.0 micrograms/kg/injection, schedule: Q01DX009 (ip), vehicle: saline with Tween-80) 108 % of control. Moreover, the T/C (dose: 20.0 micrograms/kg/injection, schedule: Q01DX009 (ip), vehicle: saline with Tween-80) was 108 % of control and the T/C (dose: 40.0 micrograms/kg/injection, schedule: Q01DX009 (ip), vehicle: saline with Tween-80) is 119 % of control.
For the compound `Cc1cc(/C=C/c2cc[n+](C)c3ccccc23)c(O)c2ncccc12`, the T/C by setting is: (dose: 3.0 mg/kg/injection, schedule: Q01DX009 (ip), vehicle: saline) 163 % of control; (dose: 6.0 mg/kg/injection, schedule: Q01DX009 (ip), vehicle: Klucel (hydroxypropylcellulose) (HPC)) 155 % of control; (dose: 6.0 mg/kg/injection, schedule: Q01DX009 (ip), vehicle: saline) 159 % of control; (dose: 12.0 mg/kg/injection, schedule: Q01DX009 (ip), vehicle: Klucel (hydroxypropylcellulose) (HPC)) 165 % of control; (dose: 12.0 mg/kg/injection, schedule: Q01DX009 (ip), vehicle: saline) 159 % of control; (dose: 24.0 mg/kg/injection, schedule: Q01DX009 (ip), vehicle: saline) 168 % of control.
`CC(=O)OC1CCC2(C)C(CCC3(C)C2CC=C2C4C(C)C(C)CCC4(C)CCC23C)C1(C)C` (stereo unspecified): the T/C by setting is: (dose: 100.0 mg/kg/injection, schedule: Q04DX003 (ip), vehicle: Klucel (hydroxypropylcellulose) (HPC)) 100 % of control; (dose: 200.0 mg/kg/injection, schedule: Q04DX003 (ip), vehicle: Klucel (hydroxypropylcellulose) (HPC)) 100 % of control; (dose: 400.0 mg/kg/injection, schedule: Q04DX003 (ip), vehicle: Klucel (hydroxypropylcellulose) (HPC)) 90 % of control.
As for `O=c1oc(-c2ccccc2)nc2c(Cl)ccc(Cl)c12`, the T/C reads like this: (dose: 100.0 mg/kg/injection, schedule: Q04DX003 (ip), vehicle: saline) 109 % of control; (dose: 200.0 mg/kg/injection, schedule: Q04DX003 (ip), vehicle: saline) 104 % of control; (dose: 400.0 mg/kg/injection, schedule: Q04DX003 (ip), vehicle: saline) 104 % of control.
As to `Cc1cccnc1NC(=O)/C=C/C(=O)O`, the T/C (dose: 3.12 mg/kg/injection, schedule: Q01DX001 (ip), vehicle: saline) is 100 % of control; the T/C (dose: 6.25 mg/kg/injection, schedule: Q01DX001 (ip), vehicle: saline) was 100 % of control; the T/C (dose: 12.5 mg/kg/injection, schedule: Q01DX001 (ip), vehicle: saline) is 100 % of control; the T/C (dose: 12.5 mg/kg/injection, schedule: Q01DX009 (ip), vehicle: saline) is 95 % of control; the T/C (dose: 12.5 mg/kg/injection, schedule: Q04DX003 (ip), vehicle: saline) is 100 % of control; the T/C (dose: 18.0 mg/kg/injection, schedule: Q01DX001 (ip), vehicle: saline) was 109 % of control. The T/C is 100 % of control (dose: 25.0 mg/kg/injection, schedule: Q01DX009 (ip), vehicle: saline); 100 % of control (dose: 28.0 mg/kg/injection, schedule: Q01DX001 (ip), vehicle: saline); 104 % of control (dose: 40.0 mg/kg/injection, schedule: Q01DX001 (ip), vehicle: saline).
As to `C=C(CN(CC(=C)C(=O)c1ccccc1)C(C)(C)C)C(=O)c1ccccc1`, the T/C by setting is: (dose: 6.25 mg/kg/injection, schedule: Q01DX009 (ip), vehicle: saline with Tween-80) 106 % of control; (dose: 12.5 mg/kg/injection, schedule: Q01DX009 (ip), vehicle: saline with Tween-80) 111 % of control; (dose: 25.0 mg/kg/injection, schedule: Q01DX009 (ip), vehicle: saline with Tween-80) 103 % of control.
With `CC(=O)CC(C)=O.CC(=O)CC(C)=O.C[CH2][Sn][CH2]C`, the T/C (dose: 12.5 mg/kg/injection, schedule: Q01DX001 (ip), vehicle: Klucel (hydroxypropylcellulose) (HPC)) was 116 % of control.
`CC(C)CC(NC(=O)C(O)C(N)Cc1ccccc1)C(=O)O` (stereo unspecified): the T/C is, setting by setting: (dose: 37.5 mg/kg/injection, schedule: Q01DX009 (ip), vehicle: saline with Tween-80) 94 % of control and 98 % of control; (dose: 75.0 mg/kg/injection, schedule: Q01DX009 (ip), vehicle: saline with Tween-80) 95 % of control and 98 % of control; (dose: 150.0 mg/kg/injection, schedule: Q01DX009 (ip), vehicle: saline with Tween-80) 95 % of control and 100 % of control.
`CCOC1(c2ccccc2)c2cc(Cl)ccc2NC(=O)N1CC` (stereo unspecified): the T/C is 101 % of control under setting [1], 98 % of control under setting [2] and 94 % of control under setting [3].
With `CCCCN(CCCC)C(=O)C1C=C2c3cccc4[nH]cc(c34)CC2N(C)C1` (stereo unspecified), the T/C reads like this: (dose: 50.0 mg/kg/injection, schedule: Q01DX009 (ip), vehicle: water) 105 % of control; (dose: 100.0 mg/kg/injection, schedule: Q01DX009 (ip), vehicle: water) 94 % of control; (dose: 100.0 mg/kg/injection, schedule: Q04DX003 (ip), vehicle: water) 105 % of control; (dose: 200.0 mg/kg/injection, schedule: Q01DX009 (ip), vehicle: water) 114 % of control; (dose: 200.0 mg/kg/injection, schedule: Q04DX003 (ip), vehicle: water) 94 % of control; (dose: 400.0 mg/kg/injection, schedule: Q01DX009 (ip), vehicle: water) 109 % of control. Further, for the setting “dose: 400.0 mg/kg/injection, schedule: Q04DX003 (ip), vehicle: water”, the T/C was 97 % of control.
On to `CCOC(=O)COc1ccc(/C=C(\C)[N+](=O)[O-])c2ccccc12`, for which the T/C is 112 % of control and 123 % of control under setting [1]; 112 % of control under setting [2]; 122 % of control under setting [3]; 106 % of control (dose: 400.0 mg/kg/injection, schedule: Q01DX009 (ip), vehicle: saline with Tween-80).
As to `CN(C)c1ncnc2nsnc12`, under “dose: 75.0 mg/kg/injection, schedule: Q04DX003 (ip), vehicle: saline with Tween-80”, the T/C is 95 % of control.

For the origin of these results see PubChem BioAssay AID328 (DTP/NCI, 2004).
